Each molecule was assayed on YAP-TEAD (assay: TEAD inhibition, Hippo Pathway TEAD Reporter MCF-7 luciferase assay). Conditions: Homo sapiens, MCF7, 24 h, Hippo Pathway TEAD Reporter MCF-7 cells, luciferase activity after 24 h; read-out: IC50 of the test compounds on YAP-TEAD inhibition (Group).
Assay type: cell-based
In short: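 IC50 derived from ONE-Glo luciferase luminescence after 24 h compound exposure (11 concentrations in quadruplicate, 0.1% DMSO control). Reporter: MCF-7 line expressing firefly luciferase under TEAD elements, constitutively activated by nuclear YAP1.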

O=C1CC(C(=O)Nc2cc(Oc3ccc(C(F)(F)F)cc3)cc3c2OCC3)CCN1 (centres unmarked) [Compound 187, 2-Oxo-N-(5-(4-(trifluoromethyl)phenoxy)-2,3-dihydrobenzofuran-7-yl)-piperidine-4-carboxamide] and NC(=O)CN1C(=O)CCC1C(=O)Nc1cc(Oc2ccc(C(F)(F)F)cc2)cc2c1OCC2 (centres unmarked) [Compound 189, 1-(2-Amino-2-oxoethyl)-5-oxo-N-(5-(4-(trifluoromethyl)phenoxy)-2,3-dihydro-benzofuran-7-yl)pyrrolidine-2-carboxamide] cannot be ordered by IC50: < 50 nM for the first, < 50 nM for the second.

First: CNC(=O)CN1C(=O)CCC1C(=O)Nc1cc(Oc2ccc(C(F)(F)F)cc2)cc2c1OCC2 (centres unmarked) [Compound 188, 1-(2-(Methylamino)-2-oxoethyl)-5-oxo-N-(5-(4-(trifluoromethyl)phenoxy)-2,3-dihydrobenzofuran-7-yl)pyrrolidine-2-carboxamide]
Second: CN1C(=O)CC[C@H]1C(=O)Nc1cc(Oc2ccc(C(F)F)cc2)cc2c1OCC2 [Compound 214, (S)—N-(5-(4-(Difluoromethyl)phenoxy)-2,3-dihydrobenzofuran-7-yl)-1-methyl-5-oxopyrrolidine-2-carboxamide]
The IC50 of the first is higher: 301 to 2000 nM for the first, < 50 nM for the second.

O=C1CCC(C(=O)Nc2cc(OC3CCC(F)(F)CC3)cc3c2OCC3)CN1 (centres unmarked) [Compound 190, N-(5-((4,4-Difluorocyclohexyl)oxy)-2,3-dihydrobenzofuran-7-yl)-6-oxo-piperidine-3-carboxamide] and O=C1CCC(C(=O)Nc2cc(OC3CCC(F)(F)CC3)cc3c2OCCO3)CN1 (centres unmarked) [Compound 191, N-(7-((4,4-Difluorocyclohexyl)oxy)-2,3-dihydrobenzo[b][1,4]dioxin-5-yl)-6-oxopiperidine-3-carboxamide] fall in the same range of IC50: 301 to 2000 nM for the first, 301 to 2000 nM for the second.

CN1C(=O)NCC1C(=O)Nc1cc(Oc2ccc(C(F)(F)F)cc2)cc2c1OCCO2 (centres unmarked) [Compound 192, 3-Methyl-2-oxo-N-(7-(4-(trifluoromethyl)phenoxy)-2,3-dihydrobenzo[b][1,4]-dioxin-5-yl)imidazolidine-4-carboxamide] and CN1C(=O)NCC1C(=O)Nc1cc(Oc2ccc(C(F)F)cc2)cc2c1OCC2 (centres unmarked) [Compound 213, N-(5-(4-(Difluoromethyl)phenoxy)-2,3-dihydrobenzofuran-7-yl)-3-methyl-2-oxoimidazolidine-4-carboxamide] cannot be ordered by IC50: < 50 nM for the first, < 50 nM for the second.

First: CN1C(=O)NCC1C(=O)Nc1cc(Oc2ccc(C(F)(F)F)cn2)cc2cn[nH]c12 (centres unmarked) [Compound 193, 3-Methyl-2-oxo-N-(5-((5-(trifluoromethyl)pyridin-2-yl)oxy)-1H-indazol-7-yl)-imidazolidine-4-carboxamide]
Second: CN1C(=O)NC[C@H]1C(=O)Nc1cc(Oc2ccc(C(F)(F)F)cn2)cc2ccoc12 [Compound 216, (S)-3-Methyl-2-oxo-N-(5-((5-(trifluoromethyl)pyridin-2-yl)oxy)benzofuran-7-yl)imidazolidine-4-carboxamide]
The IC50 of the first is higher: 301 to 2000 nM for the first, < 50 nM for the second. The second is the more potent here.

Compared with CN1C(=O)NC[C@@H]1C(=O)Nc1cc(Oc2ccc(C(F)(F)F)cn2)ccc1F [Compound 196, (R)—N-(2-Fluoro-5-((5-(trifluoromethyl)pyridin-2-yl)oxy)phenyl)-3-methyl-2-oxoimidazolidine-4-carboxamide], CN1C(=O)OCC1C(=O)Nc1cc(Oc2ccc(C(F)(F)F)cn2)ccc1F (centres unmarked) [Compound 197, N-(2-Fluoro-5-((5-(trifluoromethyl)pyridin-2-yl)oxy)phenyl)-3-methyl-2-oxooxazolidine-4-carboxamide] is higher in IC50: < 50 nM for the first, 50 to 300 nM for the second. The first is the more potent here.

Compared with CN1C(=O)OC[C@@H]1C(=O)Nc1cc(Oc2ccc(C(F)(F)F)cn2)ccc1F [Compound 198, (R)—N-(2-Fluoro-5-((5-(trifluoromethyl)pyridin-2-yl)oxy)phenyl)-3-methyl-2-oxooxazolidine-4-carboxamide], CN1C(=O)OC[C@H]1C(=O)Nc1cc(Oc2ccc(C(F)(F)F)cn2)ccc1F [Compound 199, (S)—N-(2-Fluoro-5-((5-(trifluoromethyl)pyridin-2-yl)oxy)phenyl)-3-methyl-2-oxooxazolidine-4-carboxamide] is higher in IC50: 50 to 300 nM for the first, 301 to 2000 nM for the second.

First: COc1ccc(Oc2cc(C(F)(F)F)ccn2)cc1NC(=O)C1CNC(=O)N1C (centres unmarked) [Compound 200, N-(2-Methoxy-5-((4-(trifluoromethyl)pyridin-2-yl)oxy)phenyl)-3-methyl-2-oxoimidazolidine-4-carboxamide]
Second: COc1ccc(Oc2cc(C(F)(F)F)ccn2)cc1NC(=O)C1CCC(=O)N1C (centres unmarked) [Compound 201, N-(2-Methoxy-5-((4-(trifluoromethyl)pyridin-2-yl)oxy)phenyl)-1-methyl-5-oxopyrrolidine-2-carboxamide]
The IC50 of the first is lower: 50 to 300 nM for the first, 301 to 2000 nM for the second. The first is the more potent here.

COc1ccc(Oc2ccc(F)cn2)cc1NC(=O)C1CCC(=O)N1C (centres unmarked) [Compound 202, N-(5-((5-Fluoropyridin-2-yl)oxy)-2-methoxyphenyl)-1-methyl-5-oxopyrrolidine-2-carboxamide] and COc1ccc(Oc2ccc(Cl)cn2)cc1NC(=O)C1CCC(=O)N1C (centres unmarked) [Compound 203, N-(5-((5-Chloropyridin-2-yl)oxy)-2-methoxyphenyl)-1-methyl-5-oxo-pyrrolidine-2-carboxamide] fall in the same range of IC50: 301 to 2000 nM for the first, 301 to 2000 nM for the second.

Compared with COc1ccc(COC2CCC(F)(F)CC2)cc1NC(=O)C1CCC(=O)N1C (centres unmarked) [Compound 205, N-(5-(((4,4-Difluorocyclohexyl)oxy)methyl)-2-methoxyphenyl)-1-methyl-5-oxopyrrolidine-2-carboxamide], COc1ccc(OCC2CCC(F)(F)CC2)cc1NC(=O)C1CCC(=O)N1C (centres unmarked) [Compound 206, N-(5-((4,4-Difluorocyclohexyl)methoxy)-2-methoxyphenyl)-1-methyl-5-oxopyrrolidine-2-carboxamide] is lower in IC50: 301 to 2000 nM for the first, < 50 nM for the second. The second is the more potent here.

First: COc1ccc(OC2CCCC(F)(F)CC2)cc1NC(=O)[C@@H]1CCC(=O)N1C (stereo partly drawn) [Compound 207, (2S)—N-(5-((4,4-Difluorocycloheptyl)oxy)-2-methoxyphenyl)-1-methyl-5-oxopyrrolidine-2-carboxamide]
Second: COc1ccc(O[C@H]2CC[C@@H](C(F)(F)F)CC2)cc1NC(=O)[C@H]1CCC(=O)N1C [Compound 209, (R)—N-(2-Methoxy-5-(((cis)-4-(trifluoromethyl)cyclohexyl)oxy)phenyl)-1-methyl-5-oxopyrrolidine-2-carboxamide]
The IC50 of the first is higher: 50 to 300 nM for the first, < 50 nM for the second. The second is the more potent here.

COc1ccc(OC2CCC(C(F)(F)F)CC2)cc1NC(=O)[C@H]1COC(=O)N1C (stereo partly drawn) [Compound 208, (R)—N-(2-Methoxy-5-((4-(trifluoromethyl)cyclohexyl)oxy)phenyl)-3-methyl-2-oxooxazolidine-4-carboxamide] and COc1ccc(O[C@H]2CC[C@@H](C(F)(F)F)CC2)cc1NC(=O)[C@@H]1CCC(=O)N1C [Compound 210, (S)—N-(2-Methoxy-5-(((cis)-4-(trifluoromethyl)cyclohexyl)oxy)phenyl)-1-methyl-5-oxopyrrolidine-2-carboxamide] cannot be ordered by IC50: < 50 nM for the first, < 50 nM for the second.

COc1ccc(Oc2ccc(C(F)F)cn2)cc1NC(=O)C1CCC(=O)N1C (centres unmarked) [Compound 211, N-(5-((5-(Difluoromethyl)pyridin-2-yl)oxy)-2-methoxyphenyl)-1-methyl-5-oxopyrrolidine-2-carboxamide] and COc1ccc(Oc2ccc(C(F)F)cn2)cc1NC(=O)C1CNC(=O)N1C (centres unmarked) [Compound 212, N-(5-((5-(Difluoromethyl)pyridin-2-yl)oxy)-2-methoxyphenyl)-3-methyl-2-oxoimidazolidine-4-carboxamide] fall in the same range of IC50: 50 to 300 nM for the first, 50 to 300 nM for the second.

First: CN1C(=O)CC[C@@H]1C(=O)Nc1cc(Oc2ccc(C(F)F)cc2)cc2c1OCC2 [Compound 215, (R)—N-(5-(4-(Difluoromethyl)phenoxy)-2,3-dihydrobenzofuran-7-yl)-1-methyl-5-oxopyrrolidine-2-carboxamide]
Second: CN1C(=O)CCC1C(=O)Nc1cc(Oc2ccc(F)c(F)c2)ccc1-c1nnco1 (centres unmarked) [Compound 224, N-(5-(3,4-Difluorophenoxy)-2-(1,3,4-oxadiazol-2-yl)phenyl)-1-methyl-5-oxopyrrolidine-2-carboxamide]
The IC50 of the first is lower: < 50 nM for the first, 301 to 2000 nM for the second.

Compared with CN1C(=O)NC[C@@H]1C(=O)Nc1cc(Oc2ccc(C(F)(F)F)cn2)cc2ccoc12 [Compound 217, (R)-3-Methyl-2-oxo-N-(5-((5-(trifluoromethyl)pyridin-2-yl)oxy)benzofuran-7-yl)imidazoledine-4-carboxamide], CN1C(=O)NC[C@H]1C(=O)Nc1cc(Oc2ccc(C(F)(F)F)cn2)cc2c1ncn2C [Compound 218, (S)-3-Methyl-N-(1-methyl-6-((5-(trifluoromethyl)pyridin-2-yl)oxy)-1H-benzo-[d]imidazol-4-yl)-2-oxoimidazolidine-4-carboxamide] is higher in IC50: < 50 nM for the first, 50 to 300 nM for the second. The first is the more potent here.

COc1ccc(Oc2ccc(Cl)c(Cl)c2)cc1NC(=O)C1CCC(=O)N1C (centres unmarked) [Compound 222, N-(5-(3,4-Dichlorophenoxy)-2-methoxyphenyl)-1-methyl-5-oxopyrrolidine-2-carboxamide] and COc1ccc(Oc2ccc(F)c(Cl)c2)cc1NC(=O)C1CCC(=O)N1C (centres unmarked) [Compound 223, N-(5-(3-Chloro-4-fluorophenoxy)-2-methoxyphenyl)-1-methyl-5-oxo-pyrrolidine-2-carboxamide] cannot be ordered by IC50: < 50 nM for the first, < 50 nM for the second.

First: CN1C(=O)CCC1C(=O)Nc1cc(Oc2ccc(C(F)(F)F)cc2)cc2cn[nH]c12 (centres unmarked) [Compound 225, 1-Methyl-5-oxo-N-(5-(4-(trifluoromethyl)phenoxy)-1H-indazol-7-yl)-pyrrolidine-2-carboxamide]
Second: COc1ccc(Oc2ccc(C(F)(F)F)cc2)cc1NC(=O)[C@@H]1CN(C)C(=O)N1C [Compound 226, (S)—N-(2-Methoxy-5-(4-(trifluoromethyl)phenoxy)phenyl)-1,3-dimethyl-2-oxoimidazolidine-4-carboxamide]
The IC50 of the first is higher: 301 to 2000 nM for the first, < 50 nM for the second. The second is the more potent here.

For COc1ccc(Oc2ccc(C(F)(F)F)cc2)cc1NC(=O)[C@H]1CN(C)C(=O)N1C [Compound 227, (R)—N-(2-Methoxy-5-(4-(trifluoromethyl)phenoxy)phenyl)-1,3-dimethyl-2-oxoimidazolidine-4-carboxamide], the IC50 was < 50 nM.

From patent publication US20240246908A1 (ORION CORPORATION, priority 2021, published 2024)
